Like-named read-outs stand apart in the source and are kept apart here.
Experiments:
[1] = tested on: NGF-induced vascular hyper permeability; assay: Inhibition of rat NGF-induced vascular hyper permeability; format: in vivo; settings: po, 1 mg/kg orally, read-out: Inhibition rate of vascular hyper permeability (%) (time after administration (h))
Protocol: TrkA-inhibiting activity of the present compound was evaluted in vivo. The present compound dissolved in a medium was orally administered (adminstered volume: 5 mL/kg) to male CD(SD)IGS rats (7- to 9-week old, Charles River laboratories Japan, Inc.) shaved on the back. A medium was orally administered (adminstered volume: 5 mL/kg) to the control and normal groups. After 6, 12 or 14 hours of administration, 3 μg/mL of a NGF (Mouse 2.5s, Natural, Invitrogen) solution prepared in 0.1% BSA (Sigma-Aldrich)-containing saline was intracutaneously administered (dose; 50 μL/site) at 3 sites on the back of animals under halothane anesthesia. For the normal group, 0.1% BSA-containing saline was intracutaneously administered (dose; […]) at 3 sites on the back. Immediately after intracutaneous administration, 1% Evans Blue (Tokyo Chemical Industriy Co., Ltd.) was administered intravenously from tail (adminstered volume: 3 mL/kg). After 10 minutes of administration, the animals were sacrificed by bleeding due to incision of the abdominal aorta. The sites of intracutaneous administration on the back (3 sites) were excised and the skin samples were respectively transferred to the wells in a 48-well plate (Asahi Glass Co., Ltd.). Formamide (0.8 mL/well) was added to the plate and the plate was sealed and incubated overnight at 60° C. The formamide extraction solution (200 μL) was transferred to a 96-well plate and the absorbance (wavelength: 620 nm) of Evans Blue extracted in formamide was measured on an absorbance microplate reader (SpectraMAX 190, Molecular Devices Japan, K.K.). Standard samples of Evans Blue dissolved in formamide (0, 0.78, 1.56, 3.13, 6.25, 12.5, 25 and 50 µg/mL) were measured at the same time for the absorance (wavelength: 620 nm) to generate a calibration curve. Based on the calibration curve and the absorbances of samples, the concentrations of Evans Blue in the sample was calculated. The concentrations of Evans Blue for three skin samples collected from one aminal were averaged to obtain the vale for the animal. The rate of inhibition for rat NGF-induced vascular hyper permeability of the present compound was calculated according to the following Equation: Inhibition rate (%)={1−(AX−AN)/(AC−AN)}×100 [Eq. 3]
wherein AX: the concentration of Evans Blue of the test compound (an average value of 3 samples from one animal);
AN: the concentration of Evans Blue of the normal group (an average value of 3 samples from one animal);
AC: the concentration of Evans Blue of the control group (an average value of 3 samples from one animal).

human TrkA = human TrkA (Homo sapiens (Human), UniProt P04629); assay: Measurement of TrkA kinase-inhibiting activity using human TrkA-expressing cells; format: cell-based; settings: CHO-K1 cells expressing human TrkA and NFAT-bla; NGF 50 ng/ml; TR-FRET reporter
Protocol: TrkA kinase-inhibiting activity in cell systems was measured using CHO-K1 cells exressing human TrkA and NFAT-bla (CellSenser™ TrkA-NFAT-bla CHO-K1 cells, Invitrogen).
On the day before the assay, CellSenser™ TrkA-NFAT-bla CHO-K1 cells were suspended in an assay medium (Opti-MEM1 Reduced Serum Medium (Invitrogen) containing 0.5% dialysed fetal bovine serum (Invitrogen), 0.1 mM nonessential amino acids (Invitrogen), 1 mM sodium pyruvate (Invitrogen) and antibiotics (100 U/mL penicillin and 100 µg/mL streptomycin (Invitrogen))) and plated at a density of 2.4×10^4 cells/40 μL/well in a 96-well clear bottom plate (Corning, Catalogue No.: 3882). In some wells were added only the assay medium at 40 μL/well (Cell-free). On the day of the assay, 10 mM of the present compound (DMSO solution) was distributed in a 96-well plate (Costar, Catalogue No.: 3363) and serially diluted with DMSO with the geometrical ratio of 3. The serial dilutions were diluted with the assay medium to 100-fold to prepare a solution of the present compound with a 10-fold concentration (DMSO concentration: 1%). To the plate where cells were plated was added the present compound at 5 µL/well and the plate was incubated in a CO2 incubator with 5% CO2, 95% Air at 37° C. for 30 minutes. For a control and a blank, the assay medium containing 1% DMSO was added at 5 µL/well in place of the solution of the present compound. Subsequently the assay medium containing NGF (Mouse 2.5s, Natural, Invitrogen) was added to the plate at 5 µL/well (final concentration of NGF: 50 ng/ml) and the plate was incubated in a CO2 incubator with 5% CO2, 95% Air at 37° C. for 5 hours. For the blank group, the assay medium was added in place of NGF at 5 µL/well. A reporter assay detection reagent ([…]) was added to the plate which was then incubated in the dark at room temperature for 120 minutes. The reporter assay detection reagent was prepared from LiveBLAzer™-FRET B/G Loading Kit (Invitrogen). On the Analyst GT (Molecular Devices Japan, K.K.) the wells were irradiated with excitation light at 405 nm and the fluorescence intensities at 460 nm and 530 nm were measured. The time resolved fluorescence resonance energy transfer (TR-FRET) ratio of each well was calculated according to the following Equation 1: TR-FRET ratio=(A460x−A460F)/(A530x−A530F) [Eq. 1]
A460x: the fluorescence intensity at 460 nm of the present compound, control or blank;
A460F: the fluorescence intensity at 460 nm of the Cell-free;
A530x: the fluorescence intensity at 530 nm of the present compound, control or blank; and
A530x: the fluorescence intensity at 530 nm of the Cell-free.
The TR-FRET inhibition rate (%) of the present compound was calculated according to the following Equation 2: Inhibition rate (%)={1−(AX−AB)/(AC−AB)}×100 [Eq. 2]
wherein AX: the TR-FRET ratio when the present compound is added;
AB: the TR-FRET of the blank; and
AC: the TR-FRET of the control.
The IC50 value by the present compound was calculated from the inhibition curve based on the inhibition rate of the present compound at respective concentrations.

Sequence of human TrkA (P04629 33-796): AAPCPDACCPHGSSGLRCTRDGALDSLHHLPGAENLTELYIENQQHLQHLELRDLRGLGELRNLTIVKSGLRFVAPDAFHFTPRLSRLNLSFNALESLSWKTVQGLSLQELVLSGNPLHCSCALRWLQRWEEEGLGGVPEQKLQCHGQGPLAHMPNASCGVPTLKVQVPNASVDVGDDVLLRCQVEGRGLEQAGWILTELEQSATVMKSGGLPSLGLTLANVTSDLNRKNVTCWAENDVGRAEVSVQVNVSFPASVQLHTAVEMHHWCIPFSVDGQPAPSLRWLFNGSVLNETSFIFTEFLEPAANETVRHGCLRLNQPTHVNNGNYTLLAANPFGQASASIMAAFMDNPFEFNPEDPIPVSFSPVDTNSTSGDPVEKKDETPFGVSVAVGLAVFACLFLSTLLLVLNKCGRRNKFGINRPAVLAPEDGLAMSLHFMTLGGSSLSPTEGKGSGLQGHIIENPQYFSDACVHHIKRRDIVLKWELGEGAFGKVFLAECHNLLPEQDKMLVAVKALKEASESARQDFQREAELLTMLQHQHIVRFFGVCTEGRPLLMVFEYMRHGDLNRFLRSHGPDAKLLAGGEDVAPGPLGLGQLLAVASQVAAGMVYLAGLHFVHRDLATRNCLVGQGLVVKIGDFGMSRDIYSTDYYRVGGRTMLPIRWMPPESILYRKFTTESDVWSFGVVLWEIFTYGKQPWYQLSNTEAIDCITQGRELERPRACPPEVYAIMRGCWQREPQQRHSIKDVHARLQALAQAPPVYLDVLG

Row | IC50 (human TrkA) | Structure (SMILES) | inhibition in vivo at 1 mg/kg ([1]; 14 h after administration) | inhibition in vivo at 1 mg/kg ([1]; 12 h after administration)
1 | 0.004 µM | Nc1ncc(Cl)cc1-c1ccc(Oc2ncc(NC(=O)Nc3cc(C(F)(F)F)ccc3-c3ccccc3)cn2)cc1 [Example 15-55, 1-{2-[4-(2-amino-5-chloro-3-pyridinyl)phenoxy]-5-pyrimidinyl}-3-[4-(trifluoromethyl)-2-biphenylyl]urea] | 94% | –
2 | 0.002 µM | Nc1ncc(F)cc1-c1ccc(Oc2ncc(NC(=O)Nc3cc(C(F)(F)F)ccc3-c3ccccc3)cn2)cc1 [Example 15-58, 1-{2-[4-(2-amino-5-fluoro-3-pyridinyl)phenoxy]-5-pyrimidinyl}-3-[4-(trifluoromethyl)-2-biphenylyl]urea] | 100% | –
3 | 0.001 µM | O=C(Nc1cnc(Oc2ccc(-c3cnn4ccc(N5CCC5)nc34)cc2)nc1)Nc1cc(C(F)(F)F)ccc1-c1cccnc1 [Example 21-1, 1-(2-(4-(5-(azetidin-1-yl)pyrazolo[1,5-a]pyrimidin-3-yl)phenoxy)pyrimidin-5-yl)-3-(2-(pyridin-3-yl)-5-(trifluoromethyl)phenyl)urea] | 87% | –
4 | 0.001 µM | Cn1nccc1-c1ccc(C(F)(F)F)cc1NC(=O)Nc1cnc(Oc2ccc(-c3cnn4ccc(N5CCC5)nc34)cc2)nc1 [Example 21-2, 1-(2-(4-(5-(azetidin-1-yl)pyrazolo[1,5-a]pyrimidin-3-yl)phenoxy)pyrimidin-5-yl)-3-(2-(1-methyl-H-pyrazol-5-yl)-5-(trifluoromethyl)phenyl)urea] | 100% | –
5 | 0.001 µM | COc1ccn2ncc(-c3ccc(Oc4ncc(NC(=O)Nc5cc(C(F)(F)F)ccc5-c5cccnc5)cn4)cc3)c2n1 [Example 21-9, 1-(2-(4-(5-methoxypyrazolo[1,5-a]pyrimidin-3-yl)phenoxy)pyrimidin-5-yl)-3-(2-(pyridin-3-yl)-5-(trifluoromethyl)phenyl)urea] | 100% | –
6 | 0.001 µM | O=C(Nc1cnc(Oc2ccc(-c3cnn4cccnc34)cc2)nc1)Nc1cc(C(F)(F)F)ccc1-c1cccnc1 [Example 21-13, 1-(2-(4-(pyrazolo[1,5-a]pyrimidin-3-yl)phenoxy)pyrimidin-5-yl)-3-(2-(pyridin-3-yl)-5-(trifluoromethyl)phenyl)urea] | – | 100%
7 | 0.001 µM | CN(C)c1ccn2ncc(-c3ccc(Oc4ncc(NC(=O)Nc5cc(C(F)(F)F)ccc5-c5cccnc5)cn4)cc3)c2n1 [Example 21-37, 1-(2-{4-[5-(dimethylamino)pyrazolo[1,5-a]pyrimidin-3-yl]phenoxy}-5-pyrimidinyl)-3-[2-(3-pyridinyl)-5-(trifluoromethyl)phenyl]urea] | 98% | –

Continued, molecule first:

Row | Structure (SMILES) | IC50 (human TrkA) | inhibition in vivo at 1 mg/kg ([1]; 14 h after administration) | inhibition in vivo at 1 mg/kg ([1]; 12 h after administration)
8 | Nc1ncc(C(F)(F)F)cc1-c1ccc(Oc2ncc(NC(=O)Nc3cc(C(F)(F)F)ccc3-n3ccc(C(F)(F)F)n3)cn2)cc1 [Example 15-52, 1-(2-{4-[2-amino-5-(trifluoromethyl)-3-pyridinyl]phenoxy}-5-pyrimidinyl)-3-{5-(trifluoromethyl)-2-[3-(trifluoromethyl)-1H-pyrazol-1-yl]phenyl}urea] | 0.004 µM | 96% | –
9 | Nc1ncc(Cl)cc1-c1ccc(Oc2ncc(NC(=O)Nc3cc(C(F)(F)F)ccc3-n3cc(Cl)cn3)cn2)cc1 [Example 15-63, 1-{2-[4-(2-amino-5-chloro-3-pyridinyl)phenoxy]-5-pyrimidinyl}-3-[2-(4-chloro-1H-pyrazol-1-yl)-5-(trifluoromethyl)phenyl]urea] | 0.002 µM | 99% | –
10 | Nc1ncc(Cl)cc1-c1ccc(Oc2ncc(NC(=O)Nc3cc(Cl)ccc3-n3ccc(C(F)(F)F)n3)cn2)cc1 [Example 15-71, 1-{2-[4-(2-amino-5-chloro-3-pyridinyl)phenoxy]-5-pyrimidinyl}-3-{5-chloro-2-[3-(trifluoromethyl)-1H-pyrazol-1-yl]phenyl}urea] | 0.002 µM | 100% | –
11 | Nc1ncc(Cl)cc1-c1ccc(Oc2ncc(NC(=O)Nc3ccc(C(F)(F)F)cc3C(F)(F)F)cn2)cc1 [Example 15-77, 1-{2-[4-(2-amino-5-chloro-3-pyridinyl)phenoxy]-5-pyrimidinyl}-3-[2,4-bis(trifluoromethyl)phenyl]urea] | 0.002 µM | 100% | –
12 | Nc1ncc(C(F)(F)F)cc1-c1ccc(Oc2ncc(NC(=O)Nc3cc(C(F)(F)F)ccc3-n3cc(Cl)cn3)cn2)cc1 [Example 15-87, 1-(2-{4-[2-amino-5-(trifluoromethyl)-3-pyridinyl]phenoxy}-5-pyrimidinyl)-3-[2-(4-chloro-1H-pyrazol-1-yl)-5-(trifluoromethyl)phenyl]urea] | 0.001 µM | 86% | –
13 | CS(=O)(=O)c1ccc(C(F)(F)F)cc1NC(=O)Nc1cnc(Oc2ccc(-c3cc(F)cnc3N)cc2)nc1 [Example 15-96, 1-{2-[4-(2-amino-5-fluoro-3-pyridinyl)phenoxy]-5-pyrimidinyl}-3-[2-(methylsulfonyl)-5-(trifluoromethyl)phenyl]urea] | 0.0004 µM | 90% | –
14 | CS(=O)(=O)c1ccc(C(F)(F)F)cc1NC(=O)Nc1cnc(Oc2ccc(-c3cc(C(F)(F)F)cnc3N)cc2)nc1 [Example 15-98, 1-(2-{4-[2-amino-5-(trifluoromethyl)-3-pyridinyl]phenoxy}-5-pyrimidinyl)-3-[2-(methylsulfonyl)-5-(trifluoromethyl)phenyl]urea] | 0.0008 µM | 80% | –
15 | CS(=O)(=O)c1ccc(C(F)(F)F)cc1NC(=O)Nc1cnc(Oc2ccc(-c3cc(Cl)cnc3N)cc2)nc1 [Example 15-104, 1-{2-[4-(2-amino-5-chloro-3-pyridinyl)phenoxy]-5-pyrimidinyl}-3-[2-(methylsulfonyl)-5-(trifluoromethyl)phenyl]urea] | 0.0005 µM | 100% | –
16 | CN(C)S(=O)(=O)c1ccc(C(F)(F)F)cc1NC(=O)Nc1cnc(Oc2ccc(-c3cc(C(F)(F)F)cnc3N)cc2)nc1 [Example 15-105, 2-{[(2-{4-[2-amino-5-(trifluoromethyl)-3-pyridinyl]phenoxy}-5-pyrimidinyl)carbamoyl]amino}-N,N-dimethyl-4-(trifluoromethyl)benzenesulfonamide] | 0.004 µM | 100% | –
